Source: PubChem BioAssay (NCI)
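Assay format: 96-well plates, 48-hour exposure. TGI marks complete inhibition of growth.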 Where a SMILES comes first, the peptide text is derived from it. [ ]: non-standard residue; d: D form. The star is where a group is joined. Phe(4-NO2) = N[CH](Cc1ccc([N+](=O)[O-])cc1)C(=O)O; Boc = CC(C)(C)OC(=O)*; OBn = c1ccc(CO*)cc1

How the values were obtained:
Test in all cases: NCI-60 cell line screen, 48 h
SK-MEL-2 melanoma = test system: SK-MEL-2 melanoma
SF-268 CNS = test system: SF-268 CNS
HL-60(TB) leukemia = test system: HL-60(TB) leukemia
DU-145 prostate = test system: DU-145 prostate
IGROV1 ovarian = test system: IGROV1 ovarian
SK-OV-3 ovarian = test system: SK-OV-3 ovarian
TK-10 renal = test system: TK-10 renal
CAKI-1 renal = test system: CAKI-1 renal
HCT-116 colon = test system: HCT-116 colon
MDA-N = test system: MDA-N

SMILES	TGI (SK-MEL-2 melanoma)	TGI (SF-268 CNS)	TGI (HL-60(TB) leukemia)	TGI (DU-145 prostate)	TGI (IGROV1 ovarian)	TGI (SK-OV-3 ovarian)	TGI (TK-10 renal)	TGI (CAKI-1 renal)	TGI (HCT-116 colon)	TGI (MDA-N)
O=C(Nc1ccccc1)O/N=C(/CBr)c1ccccc1	30.9 µM	47.7 µM	32.5 µM	38.1 µM	36.9 µM	95 µM	33.8 µM	31.7 µM	20 µM	24.2 µM
Cc1ccc([N+](=O)[O-])cc1S(=O)(=O)Nc1ccc(C2=NN(c3ccc([N+](=O)[O-])cc3[N+](=O)[O-])C(c3ccccc3)C2)cc1 (stereo not drawn)	33.7 µM	28 µM	57.5 µM	38.9 µM	36 µM	65.8 µM	61.8 µM	> 100 µM	27.4 µM	35.5 µM
CC(C)/C(Cl)=N/OC(=O)Nc1ccc(F)c(Cl)c1	34.2 µM	40.3 µM	5.23 µM	30.5 µM	28.4 µM	30 µM	31.9 µM	3.06 µM	6.77 µM	14.8 µM
O=c1[nH]nc(Cc2ccccc2)n1/N=C/c1c[nH]c2ccccc12	> 100 µM	88.1 µM	> 100 µM	> 100 µM	> 100 µM	> 100 µM	> 100 µM	81.8 µM	> 100 µM	> 100 µM
Cc1ccc(C(=O)OC[C@H]2CC[C@@H](n3cc(N(C)C4CCCCC4)c(=O)[nH]c3=O)O2)cc1	> 100 µM	86.5 µM	> 100 µM	> 100 µM	> 100 µM	> 100 µM	95.2 µM	> 100 µM	32.4 µM	90.7 µM
COC(=O)CCC(NC(=O)OC(C)(C)C)C(=O)NC(Cc1ccc([N+](=O)[O-])cc1)C(=O)NCC(=O)OCc1ccccc1 (stereo not drawn) (Boc-Glu(OMe)-[Phe(4-NO2)]-Gly-OBn; configuration not given here)	> 100 µM	> 100 µM	> 100 µM	> 100 µM	> 100 µM	> 100 µM	> 100 µM	> 100 µM	> 100 µM	> 100 µM
CC(=O)Oc1ccc(/C=C/C(=O)O[C@@H](C)[C@H](C)OC(=O)/C=C/c2ccc(OC(C)=O)c(OC(C)=O)c2)cc1OC(C)=O	> 100 µM	> 100 µM		> 100 µM	> 100 µM	77.2 µM	> 100 µM	> 100 µM	> 100 µM	89.4 µM
Cc1ccc2c(=O)cc(-c3csc4ccccc34)[nH]c2n1		> 53.2 µM	0.0258 µM	1.09 µM	16.7 µM	> 32 µM	9.78 µM	0.228 µM	9.38 µM	< 0.01 µM
CC(C)(CO)CNc1cc(=O)[nH]c(N)n1	> 100 µM	> 100 µM	> 100 µM	> 100 µM	> 100 µM	> 100 µM		> 100 µM	> 100 µM	> 100 µM
COC(=O)CCCc1ccc2c(c1)CC1(C2)Cc2cc3c(cc2C1)CCCC3	57.1 µM		29.2 µM		> 100 µM	> 100 µM	> 100 µM		15.9 µM	42.3 µM
Cc1nc2ccc(S(=O)(=O)Nc3ccc(Cl)cc3)cc2c(=O)n1NC(=O)CNc1ccc(Cl)cc1	> 100 µM	> 100 µM	> 100 µM	> 100 µM	> 100 µM	> 100 µM	> 100 µM	> 100 µM	> 100 µM	> 100 µM
Oc1ccc(/C=C\c2nnc(/C=C\c3ccc(O)c(O)c3)s2)cc1O	40.7 µM	14.8 µM	2.94 µM	18.8 µM	20.7 µM	26.5 µM	21.4 µM	16.8 µM	13 µM	20.8 µM
CCN1CC(C)Cn2c(=O)[nH]c3cc(Br)cc1c32 (stereo not drawn)	> 100 µM	> 100 µM	37.5 µM	> 100 µM	> 100 µM	> 100 µM	> 100 µM	> 100 µM	> 100 µM	51.8 µM
NCCC(N)C(=O)O (stereo not drawn)	> 100 µM	> 100 µM	> 100 µM	> 100 µM	> 100 µM	> 100 µM	> 100 µM	> 100 µM	> 100 µM	> 100 µM
CN1CC2=C(OC(N)=C(C#N)C2c2cccs2)/C(=C/c2cccs2)C1 (stereo not drawn)	> 64.4 µM	> 31.1 µM	12 µM	81.7 µM	> 65.8 µM	> 100 µM	> 100 µM	> 100 µM	> 49.3 µM	> 47.3 µM
Cc1ccc(C)n2c1nc1ccc3ccccc3c12		> 100 µM	> 100 µM	> 100 µM	> 100 µM	> 100 µM	> 100 µM			> 100 µM
COc1ccc(CCn2cnc3ccccc32)cc1	> 100 µM	> 100 µM	> 100 µM	> 100 µM	> 100 µM	> 100 µM	> 100 µM	> 100 µM	> 100 µM	> 100 µM
N=C(N)SCCON1C(=O)c2ccccc2C1=O	> 100 µM	> 100 µM	> 100 µM	> 100 µM	> 100 µM	> 100 µM	> 100 µM	> 100 µM	> 100 µM	> 100 µM
OC(C1CCC=NN1C(O)(C(F)(F)F)C(F)(F)F)(C(F)(F)F)C(F)(F)F (stereo not drawn)	> 10 µM	> 10 µM		> 10 µM	> 10 µM	> 10 µM	> 10 µM	> 10 µM	> 10 µM	> 10 µM
CC(C)Oc1c(-c2c(OC(C)C)c(=O)c2=O)c(=O)c1=O	> 89.1 µM	> 75.9 µM	> 100 µM	> 100 µM	> 51.5 µM	> 100 µM	> 100 µM	> 100 µM	> 51 µM	> 38.6 µM
Cc1c(C)c(C)c(-n2[nH]c(=O)n(C)c2=O)c(C)c1C	> 100 µM	> 100 µM	> 100 µM	> 100 µM	> 100 µM	> 100 µM	> 100 µM	> 100 µM	> 100 µM	> 100 µM
CC1=NOC2(C1)/C(=N/O)CCC/C2=N\O (stereo not drawn)	> 100 µM	> 100 µM			> 100 µM	> 100 µM	> 100 µM	> 100 µM	> 100 µM	> 100 µM
